# Data reported in patent US5595883A, “Method of diagnosing alzheimer's disease by measuring acetylcholinesterase activity in ocular fluid” (priority 1990, dated 1997).
# Test system: AChE
# Experiment: Cholinesterase activity of human ocular fluid (micro Ellman assay, acetylthiocholine substrate), inhibition by BW 284c51
# Format: biochemical
# Conditions: BW 284c51 1.5 μM, acetylthiocholine 1.0 mM, pH 7.0, 25° C.
# Protocol: Cholinesterase activities were measured by a microversion of the method of Ellman et al, (1961) supra, using microtitre plates. Acetylthiocholine was used as substrate at a concentration of 1.0 mM, which is optimal for AChE, but suboptimal for BuChE. The assay was performed in 0.05M Na/K phosphate buffer, pH 7.0 at 25° C., containing 3 mM 5,5'-dithio-bis-(2-nitrobenzoate), in a total volume of 100 μL. The rate of hydrolysis of acetylthiocholine was monitored by measurement of absorbances at 410 nm, using a Titertek multiscan microplate reader. A calibration curve was constructed using purified electric eel AChE (Sigma). AChE and BuChE activities were distinguished by use of the specific AChE inhibitor 1,5-bis-(-4-allyldimethylammoniumphenyl)pentan-3-one dibromide (BW 284c51) (1.5 μM).
smiles,measurement,value
"C=CC[N+](C)(C)c1ccc(CCC(=O)CCc2ccc([N+](C)(C)CC=C)cc2)cc1 [BW 284c51, 1,5-bis-(-4-allyldimethylammoniumphenyl)pentan-3-one dibromide]",inhibition of cholinesterase activity of ocular fluid,Most of this activity was inhibited
